Data taken from article PMC6414531, “Contrasting in vitro and in vivo methanol oxidation activities of lanthanide-dependent alcohol dehydrogenases XoxF1 and ExaF from Methylobacterium extorquens AM1” (Scientific Reports, 2019).

Experiments:
XoxF1 MDH (XoxF1-La) [1] = biological target: T1, XoxF1 MDH (XoxF1-La) (Methylorubrum extorquens, UniProt C5B120); experiment: PMS-mediated DCPIP reduction at […] nm, Michaelis-Menten fit; type: biochemical; details: La3+-loaded enzyme (1:1), PQQ; PMS/DCPIP as electron acceptors
T1 construct: C-terminal hexahistidine tag with rTEV site, tag cleaved; 1:1 La3+ per protomer, PQQ-containing
T1 sequence (C5B120 22-601): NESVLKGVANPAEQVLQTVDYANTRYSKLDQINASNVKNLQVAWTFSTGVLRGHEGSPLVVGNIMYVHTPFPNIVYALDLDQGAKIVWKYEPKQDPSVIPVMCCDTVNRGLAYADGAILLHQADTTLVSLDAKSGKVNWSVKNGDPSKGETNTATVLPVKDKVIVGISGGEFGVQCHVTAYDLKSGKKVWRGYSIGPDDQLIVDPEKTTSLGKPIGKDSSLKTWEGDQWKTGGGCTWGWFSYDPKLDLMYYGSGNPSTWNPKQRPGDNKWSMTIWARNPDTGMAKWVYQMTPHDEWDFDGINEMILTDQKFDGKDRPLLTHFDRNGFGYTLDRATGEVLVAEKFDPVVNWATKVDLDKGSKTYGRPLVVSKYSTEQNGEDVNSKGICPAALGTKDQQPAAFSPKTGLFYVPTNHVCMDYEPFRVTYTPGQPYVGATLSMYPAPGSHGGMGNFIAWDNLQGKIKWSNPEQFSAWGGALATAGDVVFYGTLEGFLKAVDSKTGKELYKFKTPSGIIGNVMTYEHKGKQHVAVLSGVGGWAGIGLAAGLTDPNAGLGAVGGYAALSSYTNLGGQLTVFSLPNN

[2] = biological target: T2, ExaF (ExaF-La, Ln-dependent ethanol dehydrogenase) (Methylorubrum extorquens, UniProt C5AXV8); experiment: PMS-mediated DCPIP reduction in cell-free extract; type: biochemical; details: MDH-3 mutant strain (lacks MxaF, XoxF1, XoxF2), grown with methanol and La3+
T2 construct: native enzyme in cell-free extract of MDH-3 mutant grown with methanol and La3+
T2 sequence (C5AXV8 27-587): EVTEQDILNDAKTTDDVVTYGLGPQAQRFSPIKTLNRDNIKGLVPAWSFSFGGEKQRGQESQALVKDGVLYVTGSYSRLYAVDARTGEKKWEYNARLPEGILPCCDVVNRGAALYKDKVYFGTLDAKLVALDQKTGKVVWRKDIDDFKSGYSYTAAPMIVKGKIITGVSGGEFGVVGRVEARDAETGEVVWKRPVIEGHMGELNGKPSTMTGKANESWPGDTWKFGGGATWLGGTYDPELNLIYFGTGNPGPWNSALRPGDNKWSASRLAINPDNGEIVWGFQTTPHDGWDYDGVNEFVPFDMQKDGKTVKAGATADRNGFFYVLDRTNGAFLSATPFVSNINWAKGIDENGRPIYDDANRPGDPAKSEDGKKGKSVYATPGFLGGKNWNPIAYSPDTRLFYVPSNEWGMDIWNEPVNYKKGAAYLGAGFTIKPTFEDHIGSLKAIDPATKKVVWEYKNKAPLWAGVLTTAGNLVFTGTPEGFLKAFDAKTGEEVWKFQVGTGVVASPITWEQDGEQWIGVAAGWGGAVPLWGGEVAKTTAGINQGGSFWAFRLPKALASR

XoxF1 MDH (XoxF1-La) [3] = biological target: T1, XoxF1 MDH (XoxF1-La); experiment: UV-visible spectroscopy of purified enzyme; type: binding; details: co-purified prosthetic group
purified protein = substrate: CCO; experiment: purified protein; details: La3+-loaded enzyme (1:1), PQQ; PMS/DCPIP as electron acceptors

## C=O [formaldehyde]
XoxF1 MDH (XoxF1-La) [1]
  Km: 0.096 ± 0.006 mM
[2]
  specific activity: confirming that ExaF can oxidize formaldehyde in vivo

## CO [methanol]
XoxF1 MDH (XoxF1-La) [1]
  Km: 0.044 ± 0.005 mM

## O=C(O)c1cc(C(=O)O)c2c(n1)C(=O)C(=O)c1cc(C(=O)O)[nH]c1-2 [PQQ]
XoxF1 MDH (XoxF1-La) [3]
  molar ratio: PQQ was detected as a prosthetic group via UV-visible spectroscopy

B1: XoxF1 MDH (XoxF1-La) (Methylorubrum extorquens AM1) (protein)
chain: T1 sequence (C5B120 22-601)
Purified protein
  Km: 67 ± 3 µM
  Vmax: 6.21 µmol/min/mg
  kcat/Km: 194000 M⁻¹ s⁻¹
